Laboratory results from patent US10829473B2, “Modulators of the cystic fibrosis transmembrane conductance regulator protein and methods of use” (AbbVie Overseas S.Á.R.L., priority 2017, dated 2020).
Where two headings read alike, the source gives them in different places. Marks after values point to notes of the source that are not given here.

Target: T1, F508delCFTR (Homo sapiens, UniProt P13569, DEL508-508)
T1 construct: expressed in transfected cells; host or cells: CFBE41o- human lung derived epithelial cells (CFBE41o-F508delCFTR-HRP), doxycycline-inducible
T1 sequence (P13569 with tags, fused parts or gaps DEL508-508): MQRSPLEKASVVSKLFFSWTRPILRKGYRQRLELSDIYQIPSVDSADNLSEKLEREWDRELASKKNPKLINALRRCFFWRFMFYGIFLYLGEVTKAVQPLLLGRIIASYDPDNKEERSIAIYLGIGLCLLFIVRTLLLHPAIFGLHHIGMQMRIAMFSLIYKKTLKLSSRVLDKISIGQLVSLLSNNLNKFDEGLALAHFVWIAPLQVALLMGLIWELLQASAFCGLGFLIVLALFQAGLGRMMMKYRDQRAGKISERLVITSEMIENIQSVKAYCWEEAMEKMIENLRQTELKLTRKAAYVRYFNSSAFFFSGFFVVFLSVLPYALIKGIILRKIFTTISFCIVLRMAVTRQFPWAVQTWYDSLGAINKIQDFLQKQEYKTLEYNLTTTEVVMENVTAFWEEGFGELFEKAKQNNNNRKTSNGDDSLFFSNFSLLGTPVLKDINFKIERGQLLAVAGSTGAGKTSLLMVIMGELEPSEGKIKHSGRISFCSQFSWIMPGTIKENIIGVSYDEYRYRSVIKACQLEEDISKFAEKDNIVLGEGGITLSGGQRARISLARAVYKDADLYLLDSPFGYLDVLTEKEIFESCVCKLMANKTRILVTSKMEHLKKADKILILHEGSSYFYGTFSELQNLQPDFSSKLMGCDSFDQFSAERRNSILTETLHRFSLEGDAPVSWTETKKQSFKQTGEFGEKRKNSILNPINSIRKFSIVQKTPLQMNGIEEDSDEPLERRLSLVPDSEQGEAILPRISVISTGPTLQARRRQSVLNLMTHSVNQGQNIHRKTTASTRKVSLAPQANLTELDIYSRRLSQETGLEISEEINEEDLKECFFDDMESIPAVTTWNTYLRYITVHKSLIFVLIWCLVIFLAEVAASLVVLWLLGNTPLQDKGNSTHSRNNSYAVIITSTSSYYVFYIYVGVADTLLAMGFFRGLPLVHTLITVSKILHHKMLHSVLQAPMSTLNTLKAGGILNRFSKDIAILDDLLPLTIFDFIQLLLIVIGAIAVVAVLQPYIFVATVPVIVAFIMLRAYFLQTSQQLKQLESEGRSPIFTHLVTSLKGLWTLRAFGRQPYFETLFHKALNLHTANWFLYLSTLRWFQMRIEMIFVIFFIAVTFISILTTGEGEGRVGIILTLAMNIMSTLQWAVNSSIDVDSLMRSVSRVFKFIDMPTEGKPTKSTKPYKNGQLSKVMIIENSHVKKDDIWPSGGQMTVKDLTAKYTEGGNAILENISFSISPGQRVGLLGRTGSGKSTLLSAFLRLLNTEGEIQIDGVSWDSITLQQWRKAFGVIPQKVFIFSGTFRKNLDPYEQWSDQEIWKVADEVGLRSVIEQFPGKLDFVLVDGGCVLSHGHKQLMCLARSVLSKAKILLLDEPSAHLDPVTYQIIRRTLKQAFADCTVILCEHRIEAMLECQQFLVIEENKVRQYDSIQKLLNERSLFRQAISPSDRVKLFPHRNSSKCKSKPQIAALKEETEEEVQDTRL
Assay: Cell Surface Expression-Horse Radish Peroxidase (CSE-HRP) Assay;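 as to EC50 (with co-corrector): co-corrector chromenyl benzoic acid corrector at 2 or 3 µM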;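 as to Maximum % activity (without co-corrector): % of on-plate positive control chromenyl benzoic acid corrector at 2 or 3 µM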
Format: cell-based
Conditions: for Maximum % activity (with co-corrector) / Emax: maximum at any tested concentration; for Emax: read-out: Maximum % activity (without co-corrector)
Method in brief: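 Corrector compounds were given as 8-point 3-fold series from 20 or 30 μM, with or without a 2 μM co-corrector, for 18-24 h at 33 °C. Surface HRP was read by luminol luminescence as % of positive control; variable-Hill-slope sigmoidal fitting gave EC50 from triplicate plates.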

[1] = test compound with co-corrector
[2] = test compound with co-corrector, read-out: EC50 (with co-corrector)
[3] = test compound without co-corrector
[4] = test compound without co-corrector, read-out: EC50 (without co-corrector)
[5] = test compound alone, without co-corrector, read-out: EC50 (without co-corrector)
[6] = with co-corrector, read-out: EC50 (with co-corrector)

Row | SMILES | Maximum % activity (with co-corrector) [1] | EC50 [2] | Emax [3] | EC50 [4] | EC50 [5] | Maximum % activity (with co-corrector) (with co-corrector) | EC50 [6] | Emax (without co-corrector) | EC50 (with co-corrector) [1] | EC50 (without co-corrector) [3]
1 | COCC1(c2cnc(OC(C)C)c(C3(C(=O)NS(=O)(=O)c4cccc5ccccc45)CC3)c2)CC1 [Example GI-119, 1-{5-[1-(methoxymethyl)cyclopropyl]-2-[(propan-2-yl)oxy]pyridin-3-yl}-N-(naphthalene-1-sulfonyl)cyclopropane-1-carboxamide] | +++ (≥350) | < 3 µM | > 150% | < 3 µM | – | – | – | – | – | –
2 | Cc1ccc(OC2COC2)c(C2(C(=O)NS(=O)(=O)c3cccc4nc(C)ccc34)CC2)c1 [Example I-106, 1-{5-methyl-2-[(oxetan-3-yl)oxy]phenyl}-N-(2-methylquinoline-5-sulfonyl)cyclopropane-1-carboxamide] | – | – | – | – | 3 to 10 µM | +++ (≥350) | < 3 µM | > 150% | – | –
3 | O=C(NS(=O)(=O)c1cccc2ncccc12)C1(c2cc(C3CCC3)cnc2N2CCCC2)CC1 [Example GI-28, 1-[5-cyclobutyl-2-(pyrrolidin-1-yl)pyridin-3-yl]-N-(quinoline-5-sulfonyl)cyclopropane-1-carboxamide] | – | – | – | – | 3 to 10 µM | +++ (≥350) | < 3 µM | > 150% | – | –
4 | COc1cccc(OC)c1C1(C(=O)NS(=O)(=O)c2cccc3ccccc23)CC1 [Example I-7, 1-(2,6-dimethoxyphenyl)-N-(naphthalene-1-sulfonyl)cyclopropane-1-carboxamide] | – | – | – | – | 3 to 10 µM | +++ (≥350) | < 3 µM | > 150% | – | –
5 | COc1cc(C2(C(=O)NS(=O)(=O)c3cccc4nc(C)ccc34)CC2)c(OCC(F)F)cn1 [GIII-14] | +++ (≥350) | 3 to 10 µM | > 150% | 3 to 10 µM | – | – | – | – | – | –
6 | Cc1ccc(OC(C)C)c(C2(C(=O)NS(=O)(=O)c3cccc4[nH]ncc34)CC2)c1 [II-75] | – | – | – | – | < 3 µM | +++ (≥350) | < 3 µM | > 150% | – | –
7 | Cc1ccc(C)c(C2(C(=O)NS(=O)(=O)c3cccc4[nH]ncc34)CC2)c1 [Example III-127, 1-(2,5-dimethylphenyl)-N-(1H-indazole-4-sulfonyl)cyclopropane-1-carboxamide] | – | – | – | – | 3 to 10 µM | +++ (≥350) | < 3 µM | > 150% | – | –
8 | CCc1cnc(OCC2CC2)c(C2(C(=O)NS(=O)(=O)c3cccc4[nH]ccc34)CC2)c1 [Example GI-108, 1-[2-(cyclopropylmethoxy)-5-ethylpyridin-3-yl]-N-(1H-indole-4-sulfonyl)cyclopropane-1-carboxamide] | +++ (≥350) | < 3 µM | > 150% | < 3 µM | – | – | – | – | – | –
9 | COc1ccc(C(C)OC)cc1C1(C(=O)NS(=O)(=O)c2cccc3ncccc23)CC1 (stereo not shown) [II-87] | – | – | – | – | 3 to 10 µM | +++ (≥350) | < 3 µM | > 150% | – | –
10 | COc1cc(C2(C(=O)NS(=O)(=O)c3cccc4nc(C)ccc34)CC2)c(OC(F)F)cn1 [GIII-22] | ++ (≥150 and <350) | – | 50 to 150% | – | – | – | – | – | ++^a | ++^a
11 | O=C(NS(=O)(=O)c1ccc2c(c1)CCC2)C1(c2ccc(Cl)cc2Cl)CC1 [Example III-8, 1-(2,4-dichlorophenyl)-N-(2,3-dihydro-1H-indene-5-sulfonyl)cyclopropane-1-carboxamide] | – | – | – | – | > 10 µM | ++ (≥150 and <350) | 3 to 10 µM | < 50% | – | –
12 | CCc1cnc(OCCOC)c(C2(C(=O)NS(=O)(=O)c3cccc4nc(C)ccc34)CC2)c1 [GII-56, 1-[5-ethyl-2-(2-methoxyethoxy)pyridin-3-yl]-N-(2-methylquinoline-5-sulfonyl)cyclopropane-1-carboxamide] | +++ (≥350) | 3 to 10 µM | > 150% | 3 to 10 µM | – | – | – | – | – | –
13 | COc1ncc(C2CCC2)cc1C1(C(=O)NS(=O)(=O)c2cccc3[nH]ccc23)CC1 [Example I-21, 1-(5-cyclobutyl-2-methoxypyridin-3-yl)-N-(1H-indole-4-sulfonyl)cyclopropane-1-carboxamide] | – | – | – | – | < 3 µM | +++ (≥350) | < 3 µM | > 150% | – | –
14 | Cc1ccc(S(=O)(=O)NC(=O)C2(c3cccc(Cl)c3)CC2)cc1C [Example III-74, 1-(3-chlorophenyl)-N-(3,4-dimethylbenzene-1-sulfonyl)cyclopropane-1-carboxamide] | – | – | – | – | > 10 µM | + (<150) | > 10 µM | < 50% | – | –
15 | COc1ccc(C23CC(C2)C3)cc1C1(C(=O)NS(=O)(=O)c2cccc3c2CCCN3)CC1 [Example III-101, 1-[5-(bicyclo[1.1.1]pentan-1-yl)-2-methoxyphenyl]-N-(1,2,3,4-tetrahydroquinoline-5-sulfonyl)cyclopropane-1-carboxamide] | – | – | – | – | < 3 µM | +++ (≥350) | < 3 µM | > 150% | – | –
16 | CCc1cnc(N2CCN(C)CC2)c(C2(C(=O)NS(=O)(=O)c3cccc4ncccc34)CC2)c1 [GIII-33] | + (<150) | > 10 µM | < 50% | > 10 µM | – | – | – | – | – | –
17 | CCOc1ccc(C2(OC)CCC2)cc1C1(C(=O)NS(=O)(=O)c2cccc3ncccc23)CC1 [Example I-102, 1-[2-ethoxy-5-(1-methoxycyclobutyl)phenyl]-N-(quinoline-5-sulfonyl)cyclopropane-1-carboxamide] | – | – | – | – | < 3 µM | +++ (≥350) | < 3 µM | > 150% | – | –
18 | COc1ncc(C2CCC2)cc1C1(C(=O)NS(=O)(=O)c2cccc3c2ccn3C)CC1 [II-14] | – | – | – | – | < 3 µM | +++ (≥350) | < 3 µM | > 150% | – | –
19 | COc1ncc(C(F)(F)F)cc1C1(C(=O)NS(=O)(=O)c2cccc3[nH]ccc23)CC1 [Example I-22, N-(1H-indole-4-sulfonyl)-1-[2-methoxy-5-(trifluoromethyl)pyridin-3-yl]cyclopropane-1-carboxamide] | – | – | – | – | 3 to 10 µM | +++ (≥350) | < 3 µM | > 150% | – | –
20 | O=C(NS(=O)(=O)c1ccccc1)C1(c2cccc(Br)c2)CC1 [Example III-71, N-(benzenesulfonyl)-1-(3-bromophenyl)cyclopropane-1-carboxamide] | – | – | – | – | 3 to 10 µM | +++ (≥350) | 3 to 10 µM | 50 to 150% | – | –
21 | CCOc1ncc(CC)cc1C1(C(=O)NS(=O)(=O)c2cccc3ncccc23)CC1 [Example GI-116, 1-(2-ethoxy-5-ethylpyridin-3-yl)-N-(quinoline-5-sulfonyl)cyclopropane-1-carboxamide] | +++ (≥350) | < 3 µM | > 150% | 3 to 10 µM | – | – | – | – | – | –
22 | Cc1ccc(C2(C(=O)NS(=O)(=O)Cc3ccccc3)CC2)cc1 [Example III-111, 1-(4-methylphenyl)-N-(phenylmethanesulfonyl)cyclopropane-1-carboxamide] | – | – | – | – | > 10 µM | ++ (≥150 and <350) | 3 to 10 µM | < 50% | – | –
